Paper PMC8406298, “Discovery of Fungus-Specific Targets and Inhibitors Using Chemical Phenotyping of Pathogenic Spore Germination” (mBio, 2021)
pIC50: −log10 of the molar value.

Experiments:
[1] = tested on: Cryptococcus yeast (JEC21); test: Oxygen consumption rate experiments (Seahorse XFe96); assay type: cell-based, Cryptococcus neoformans serotype D (deneoformans); details: 10 μM inhibitor injected after 20 mM glucose
Method: Oxygen consumption experiments were performed on a Seahorse Biosciences XFe96 extracellular flux analyzer, and the assays were modified from those described by Lev et al. 2020 ([28]). Briefly, cartridges were hydrated overnight in Agilent Seahorse XF calibrant. JEC21 yeast were grown overnight in YPD, washed with double-distilled water (ddH2O) and resuspended to an OD600 of 0.08 in Seahorse XF Dulbecco’s modified Eagle medium (DMEM) at pH 7.4 (Agilent 103575-100). Cells (180 μl) were loaded into each well with the exception of blank wells, which were filled with XF DMEM. Each injection solution was 10× the final volume in XF DMEM. The assay was carried out at 30°C with injections occurring every 60 min. OCR was read every 6 min during each hour interval, with 3 min of mixing and 3 min of measuring. The following final concentrations were achieved after each injection: (a) 20 mM dextrose, (b) 10 μM chosen inhibitor (furcarbanil, B2, or B5) and 1% DMSO, (c) 50 μM rotenone, 50 μM antimycin A, and 1% DMSO, and (d) 100 mM 2-deoxy-D-glucose (2-DG; Sigma-Aldrich D8375-1G). Each condition was tested in triplicates.

[2] = tested on: normal human dermal fibroblasts (NHDF) cells; test: Fibroblast cytotoxicity (CellTiter-Glo); assay type: cell-based; details: at concentrations as high as 80 μM; dose-response 0.5 to 80 μM
Outline: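 Normal human dermal fibroblasts, 1 × 10^3 per well, exposed to compounds at 10 μM for 72 h at 37°C. Viability read as ATP-dependent CellTiter-Glo luminescence. Dose-response runs titrated compounds from 80 μM to 0.5 μM in duplicate.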

Cryptococcus spores [3] = test: Quantitative germination assay (QGA), automated microscopy of spore germination; assay type: cell-based, Cryptococcus neoformans serotype D (deneoformans); details: for germination inhibition phenotype (chemical phenotype) in QGA: at phenotypic concentration
Method: In this automated microscopy-based assay, germination progression of spores is monitored as a function of changes in cell morphology over time (spores are small and oval; yeast are large and circular). Individual spores in a population (∼1 × 10^4 per sample) are measured to determine size (area) and shape (aspect ratio) from the onset of germination, and the data are collected for each cell over the time of germination (Fig. 1A).
Germination assays were modified from those described by Barkal et al. to introduce automation, increase throughput, and refine assay consistency ([12]). Briefly, 384-well plates (Thermo Scientific 142762) were loaded with 10^5 spores per well, and at 0 h, synthetic medium plus 2% dextrose (SD medium) containing the compounds of interest was added to the sample (final volume of 40 μl). All compounds were tested initially at 80 μM; however, concentrations were changed on a case-by-case basis for subsequent experiments. All assays and controls were performed with a final concentration of 0.8% DMSO (the compound solvent) unless specified otherwise. Spores were germinated at 30°C in a humidified chamber, and the same ∼5 × 10^3 cells were monitored every 2 h for 16 h. Imaging was performed on a Ti2 Nikon microscope, and each condition was visualized in a minimum of two individual wells with three fields of view acquired from each well. All images were analyzed as described previously based on cell shape and size using ImageJ. The population ratios of spores, intermediates, and yeast were determined. Error bars in plots are based on the variation among all fields of view acquired. Level of germination was determined by quantifying the decrease in the proportion of spores in a population, and rates were quantified by determining the change in this proportion over time. For all two-dimensional histograms, the x axis represents area from 0 μm^2 to 25 μm^2, and the y axis represents the aspect ratio from 0.4 to 1.
Cycloheximide (0.078 μM to 80 μM) (Dot Scientific, Inc. DSC81040-1), G418 (1.6 mM) (Fisher Scientific AAJ6267106), and puromycin (20 mM) (Dot Scientific, Inc. DSP33020-0.025) were tested with no DMSO (all were water soluble), whereas anisomycin (62.5 μM) (Sigma-Aldrich A9789-5MG) was tested in 2.5% DMSO.
Furcarbanil (80 μM) (Sigma-Aldrich T313122), rotenone (10 μM) (Fisher Scientific 501687383), and antimycin A (2.5 μM) (Santa Cruz Biotechnology, Inc. sc-202467A) were all tested in 0.8% DMSO, and TTFA (200 μM) (Sigma-Aldrich 88300-5G) was tested in 3% DMSO.

Candida albicans = tested on: Candida albicans; design: method as in PMID 16876761; details: cited from earlier work
[4] = tested on: Cryptococcus spores harboring CNK01510-NL fusion; test: Nanoluciferase germination screen (HTS); assay type: cell-based, Cryptococcus neoformans serotype D (deneoformans)
Excerpt: To identify potential inhibitors of spore germination, a nanoluciferase (NL)-based high-throughput screening (HTS) assay was developed, and compounds from three libraries of structurally diverse, drug-like small molecules (LifeChem 1 to 3) were screened (see Fig. S1 in the supplemental material). For the assay, a previously identified protein (CNK01510) was fused to the nanoluciferase protein (Promega) and introduced into its endogenous locus in the Cryptococcus genome ([14]). Strains harboring the integrated NL protein fusion were crossed under sexual development conditions to produce spores. Spores from the NL strains yielded very little NL enzyme activity; however, yeast from those strains produced a robust NL signal. Most importantly, the amount of NL signal correlated with the germination state. As spores germinated into yeast, the levels of NL signal increased, resulting in a robust signal over baseline at the end of germination (∼14-fold) (Fig. S1). […] Secondary screens were performed on these hits to determine effects on yeast replication, cytotoxicity against mammalian fibroblasts, and direct inhibition of the NL enzyme (see Data Set S1).
Screening of the LifeChem libraries (Life Chemicals) was carried out with the assistance of the University of Wisconsin—Madison (UW-Madison) small-molecule screening facility. All NL screening was performed as described previously ([7]). […]

Cryptococcus spores [5] = tested on: Cryptococcus spores; design: method as in PMID 31570398; details: previous study; cited from earlier work

SMILES	effect on oxygen consumption rate (OCR) [1]	phenotypic concentration (concentration showing the germination phenotype in QGA) (Cryptococcus spores [3]) [µM]	germination inhibition phenotype (chemical phenotype) in QGA (Cryptococcus spores [3])	further results
Cc1cc(C(=O)N(CCc2cccs2)C2CC2)c(C)o1 [B2]	substantial decrease in OCR that was not recovered from			cytotoxicity against fibroblasts [2]: ≤ 25%; inhibition at 5 µM (Cryptococcus spores [3]; Cryptococcus, at 5 μM): > 75%
Cc1cc(C(=O)N2CCC(Oc3ncccc3Cl)CC2)c(C)o1 [B5]	small decrease in OCR that was not recovered from			
O=C(CC(=O)C(F)(F)F)c1cccs1 [TTFA, thenoyltrifluoroacetone, reference compound]		200	asynchrony	effect on hyphal formation (Candida albicans): prevent hyphal formation
C[C@@H]1C[C@@H]([C@H](O)CC2CC(=O)NC(=O)C2)C(=O)[C@@H](C)C1 [cycloheximide, reference compound]			slow-down	inhibition of germination (changes in size or shape) (Cryptococcus spores [3]; 10 µM): full inhibition of germination; pIC50 (Cryptococcus spores [3]; Cryptococcus, 16 h, read-out: 50% inhibitory concentration (IC50) of spore germination): 5.77; NL signal in germination screen [4]: low levels of NL signal
CCN(CC)C(=S)SSC(=S)N(CC)CC [disulfiram]				germination inhibition phenotype in QGA (Cryptococcus spores [5]): slow-end
Cc1cc(C(=O)Nc2ccccc2)c(C)o1 [furcarbanil, reference compound]	initial substantial decrease in OCR followed by recovery	80	asynchrony	
